What is called pEC50 is −log10 of the EC50, conventionally taken in molar units.

Consider 23 compounds from US8236956B2, “Cyclopamine analogues and methods of use thereof” (Infinity Pharmaceuticals, Inc., priority 2004, dated 2012).

Molecules are shown by their SMILES. pEC50: −log10 of the molar value. Read-outs that look alike come from different tables or passages of the source.

One test has as its system Hedgehog pathway. In words: C3H10T1/2 differentiation assay (alkaline phosphatase), inhibition of the Hedgehog pathway in cell culture. To be noted: Mus musculus. It counts as cell-based. The text has this: Hedgehog pathway specific cancer cell killing effects may be ascertained using the following assay. C3H10T1/2 cells differentiate into osteoblasts when contacted with the sonic hedgehog peptide (Shh-N). Upon differentiation; these osteoblasts produce high levels of alkaline phosphatase (AP) which can be measured in an enzymatic assay (Nakamura et al., 1997 BBRC 237: 465). Compounds that block the differentiation of C3H10T1/2 into osteoblasts (a Shh dependent event) can therefore be identified by a reduction in AP production (van der Horst et al., 2003 Bone 33: 899). The assay details are described below. The results approximate (EC50 for inhibition) of the differentiation assay is shown below in Table 1.
Mouse embryonic mesoderm fibroblasts C3H10T1/2 cells (obtained from ATCC) were cultured in Basal MEM Media (Gibco/Invitrogen) supplemented with 10% heat inactivated FBS (Hyclone), 50 units/ml penicillin and 50 ug/ml streptomycin (Gibco/Invitrogen) at 37 C with 5% CO2 in air atmosphere.
C3H10T1/2 cells were plated in 96 wells with a density of 8×10^3 cells/well. Cells were grown to confluence (72 hrs). After sonic Hedgehog (250 ng/ml), (R&D Systems) and/or compound treatment, the cells were lysed in 110 µl of lysis buffer (50 mM Tris pH 7.4, 0.1% TritonX100), plates were sonicated and lysates spun through 0.2 um PVDF plates (Corning). 40 ul of lysates was assayed for AP activity in alkaline buffer solution (Sigma) containing 1 mg/ml p-Nitrophenyl Phosphate. After incubating for 30 min at 37 C, the plates were read on an Envision plate reader at 405 nm. Total protein was quantified with a BCA protein assay kit from Pierce according to manufacturer's instructions. AP activity was normalized against total protein.

Another test has as its system psoriasis lesions. To be noted: topical application; Tas et al., 2004 Dermatology 209: 126-131; cited from earlier work.
Setting [1] is: C3H 10T1/2, C3H10T1/2 cells, sonic Hedgehog 250 ng/ml, AP activity normalized against total protein, approximate, read-out: Differentiation Assay EC50 (Approximate EC50 for Inhibition).
[2] abbreviates: C3H 10T1/2, read-out: Differentiation Assay EC50 (Approximate EC50 for Inhibition).

In the case of `CC1=C2C[C@H]3[C@@H](CCC4=CC(=O)CC[C@@]43C)[C@@H]2CC[C@@]2(C1)O[C@@H]1C[C@H](C)CN(CCOCCOCc3ccccc3)[C@H]1[C@H]2C` [Compound 43], in the test with Hedgehog pathway (setting [1]), the pEC50 is 6.30 to 6.70.
Regarding `CC1=C2C[C@H]3C(CCC4=CC(=O)CC[C@@]43C)[C@@H]2CC[C@@]2(C1)O[C@@H]1C[C@H](C)CN(CCCl)[C@H]1[C@H]2C` (some centres unmarked) [Compound 28], in the test on Hedgehog pathway (setting [1]), the negative-log EC50 (pEC50) is less than 6.30.
With `CC1=C2C[C@H]3[C@@H](CC=C4C[C@@H](O)CC[C@@]43C)[C@@H]2CC[C@@]2(C1)O[C@@H]1C[C@H](C)CN(CCNC(=O)CNC(=O)CCc3ccccc3)[C@H]1[C@H]2C` [Compound 30], in the test on Hedgehog pathway (setting [2]), the negative logarithm of the EC50 (pEC50) was more than 6.70.
Turning to `COCCOCCN1C[C@@H](C)C[C@H]2O[C@]3(CC[C@@H]4C(=C(C)C3)C[C@H]3[C@H]4CCC4=CC(=O)CC[C@@]43C)[C@H](C)[C@@H]21` [Compound 41], the pEC50 with Hedgehog pathway (setting [1]) was more than 6.70.
Same read-out and setting: in the case of `COCCOCCOCCN1C[C@@H](C)C[C@H]2O[C@]3(CC[C@@H]4C(=C(C)C3)C[C@H]3[C@H]4CCC4=CC(=O)CC[C@@]43C)[C@H](C)[C@@H]21` [Compound 33] it was more than 6.70.
As to `CC1=C2C[C@H]3[C@@H](CC=C4C[C@@H](O)CC[C@@]43C)[C@@H]2CC[C@]12O[C@@H]1C[C@H](C)CN[C@H]1[C@H]2C` [cyclopamine], the “effect on psoriasis lesions” value with psoriasis lesions is on record as “full or partial regression of the lesion”.
With `C[C@@H]1CN[C@H]2[C@@H](C)[C@@]3(CC[C@H]4[C@@H]5CCC6=CC(=O)CC[C@]6(C)[C@H]5CC45CC53C)O[C@@H]2C1` (some centres unmarked) [Compound 11], in the test on Hedgehog pathway (setting [2]), the pEC50 was less than 6.30.
Turning to `CC1=C2C[C@H]3[C@@H](CCC4=CC(=O)CC[C@@]43C)[C@@H]2CC[C@@]2(C1)O[C@@H]1C[C@H](C)CN(Cc3ccc(Oc4ccccc4)cc3)[C@H]1[C@H]2C` [Compound 37], the negative-log EC50 (pEC50) in the test with Hedgehog pathway (setting [1]) was less than 6.30.
Regarding `CC1=C2C[C@H]3[C@@H](CC=C4C[C@@H](O)CC[C@@]43C)[C@@H]2CC[C@@]2(C1)O[C@@H]1C[C@H](C)CN[C@H]1[C@H]2C` [Compound 19], the negative logarithm of the EC50 (pEC50) in the test with Hedgehog pathway (setting [2]) is 6.30 to 6.70.
Take `CC1=C2C[C@H]3[C@@H](CC=C4C[C@@H](O)CC[C@@]43C)[C@@H]2CC[C@@]2(C1)O[C@@H]1C[C@H](C)CN(C)[C@H]1[C@H]2C` [Compound 20]: the pEC50 in the test with Hedgehog pathway (setting [2]) was less than 6.30.
As for `CC1=C2C[C@H]3[C@@H](CCC4=CC(=O)CC[C@@]43C)[C@@H]2CC[C@@]2(C1)O[C@@H]1C[C@H](C)CN(CCNC(=O)CCc3ccccc3)[C@H]1[C@H]2C` [Compound 21], the pEC50 with Hedgehog pathway (setting [2]) is more than 6.70.
In the case of `CC1=C2C[C@H]3[C@@H](CCC4=CC(=O)CC[C@@]43C)[C@@H]2CC[C@@]2(C1)O[C@@H]1C[C@H](C)CN(CC(=O)NCCCc3ccccc3)[C@H]1[C@H]2C` [Compound 47], the pEC50 with Hedgehog pathway (setting [1]) is 6.30 to 6.70.
With `C[C@H]1C[C@H]2O[C@]3(CC[C@H]4[C@@H]5CCC6=CC(=O)CC[C@]6(C)[C@H]5CC45CC53C)[C@H](C)[C@@H]2N(CCNC(=O)CCCCCNC(=O)CCc2ccccc2)C1` (some centres unmarked) [Compound 17], in the test on Hedgehog pathway (setting [1]), the pEC50 was more than 6.70.
As to `CC1=C2C[C@H]3[C@@H](CCC4=CC(=O)CC[C@@]43C)[C@@H]2CC[C@@]2(C1)O[C@@H]1C[C@H](C)CN[C@H]1[C@H]2C` [Compound 18], the negative logarithm of the EC50 (pEC50) in the test on Hedgehog pathway (setting [1]) is more than 6.70.
Still for that read-out and setting: in the case of `CC1=C2C[C@H]3C(CC=C4C[C@@H](O)CC[C@@]43C)[C@@H]2CC[C@@]2(C1)O[C@@H]1C[C@H](C)CN(CCCl)[C@H]1[C@H]2C` (some centres unmarked) [Compound 27] it was less than 6.30.
Consider `CC1=C2C[C@H]3[C@@H](CCC4=CC(=O)CC[C@@]43C)[C@@H]2CC[C@@]2(C1)O[C@@H]1C[C@H](C)CN(CCO)[C@H]1[C@H]2C` [Compound 39], for which, in the test on Hedgehog pathway (setting [2]), the negative-log EC50 (pEC50) was less than 6.30.
In the case of `C[C@H]1C[C@H]2O[C@]3(CC[C@H]4[C@@H]5CC=C6C[C@@H](O)CC[C@]6(C)[C@H]5CC45CC53C)[C@H](C)[C@@H]2N(CCNC(=O)CCCCCNC(=O)CCc2ccccc2)C1` (some centres unmarked) [Compound 4], in the test on Hedgehog pathway (setting [1]), the negative logarithm of the EC50 (pEC50) is more than 6.70.
For `CC1=C2C[C@H]3[C@@H](CCC4=CC(=O)CC[C@@]43C)[C@@H]2CC[C@@]2(C1)O[C@@H]1C[C@H](C)CN(CCNS(=O)(=O)CCc3ccccc3)[C@H]1[C@H]2C` [Compound 24], in the test with Hedgehog pathway (setting [1]), the negative-log EC50 (pEC50) is 6.30 to 6.70.
With `COCCOCCOCCOCCN1C[C@@H](C)C[C@H]2O[C@]3(CC[C@@H]4C(=C(C)C3)C[C@H]3[C@H]4CCC4=CC(=O)CC[C@@]43C)[C@H](C)[C@@H]21` [Compound 31], in the test with Hedgehog pathway (setting [1]), the pEC50 was more than 6.70.
Still for that read-out and setting: to `COCCOCCN1C[C@@H](C)C[C@H]2O[C@]3(CC[C@@H]4C(=C(C)C3)C[C@H]3C4CCC4=CC(=O)CC[C@@]43C)[C@H](C)[C@@H]21` (some centres unmarked) [Compound 29] belongs more than 6.70.
For the compound `C[C@@H]1CN[C@H]2[C@@H](C)[C@@]3(CC[C@H]4[C@@H]5CC=C6C[C@@H](O)CC[C@]6(C)[C@H]5CC45CC53C)O[C@@H]2C1` (some centres unmarked) [Compound 1], in the test with Hedgehog pathway (setting [2]), the negative logarithm of the EC50 (pEC50) was less than 6.30.
Take `CC1=C2C[C@H]3[C@@H](CCC4=CC(=O)CC[C@@]43C)[C@@H]2CC[C@@]2(C1)O[C@@H]1C[C@H](C)CN(Cc3ccccc3)[C@H]1[C@H]2C` [Compound 35]: the pEC50 in the test with Hedgehog pathway (setting [1]) was more than 6.70.
In the case of `CC1=C2C[C@H]3[C@@H](CCC4=CC(=O)CC[C@@]43C)[C@@H]2CC[C@@]2(C1)O[C@@H]1C[C@H](C)CN(CCN(C)C)[C@H]1[C@H]2C` [Compound 45], the pEC50 in the test on Hedgehog pathway (setting [2]) is 6.30 to 6.70.
